Data on 1 molecule can be found in PMC4814829, “Design, synthesis, crystallization and biological evaluation of new symmetrical biscationic compounds as selective inhibitors of human Choline Kinase α1 (ChoKα1)” (Scientific Reports, 2016).

By GI50 is commonly meant the concentration at which growth is held to half of that of the control. Read a low GI50 as greater sensitivity of the cells.

One series concerns mice. To be noted: mouse, in vivo; cited from earlier work.
Series [1] concerns MDA-MB-231 cells. Kind of series: Cell-cycle distribution analysis (PI, flow cytometry). It is filed as cell-based, human. To be noted: MDA-MB-231. As to the method:
[The source words this procedure for another cell line and reports this cell line under the same test.] For flow-cytometric analysis of the DNA content, 5 × 10^5 HeLa or Jurkat cells in exponential growth were treated with different concentrations of the test compounds for 24 and 48 h. After the incubation period, the cells were collected, centrifuged, and fixed with ice-cold ethanol (70%). The cells were then treated with lysis buffer containing RNAse A and 0.1% Triton X-100, and then stained with propidium iodide (PI). Samples were analyzed in a Cytomics FC500 flow cytometer (Beckman Coulter). DNA histograms were analyzed using MultiCycle for Windows (Phoenix Flow Systems).
A general note: In flow cytometry, cells or beads pass a laser one at a time.

A further series concerns HUVEC. As to the kind of experiment: Antiproliferative assay in non-tumoral cells. To be noted: Homo sapiens, mean ± SEM. It is filed as cell-based. The procedure:
Human Umbilical Vein Endothelial cells (HUVEC), were prepared from human umbilical-cord veins, as previously described. The adherent cells were maintained in M200 medium added by LSGS (low serum growth supplement), containing FBS, hydrocortisone, hEGF, bFGF, heparin, gentamycin/amphotericin (Life Technologies, Monza, Italy). Once confluent, the cells were detached by trypsin–EDTA solution and used in experiments from the first to sixth passages.

In series [2] the test system is breast- and colon-cancer cells. Also noted: method as in earlier work. To be noted: 15 μM; ref 15 (Sanchez-Lopez et al.); cited from earlier work.
A further series has as its system PBL (resting). Kind of series: Antiproliferative assay in non-tumoral cells (MTT). It is filed as cell-based. To be noted: Homo sapiens, 72 h, mean ± SEM. As to the method:
(§1) Peripheral mononuclear cells (PBMC) from healthy donors were obtained by separation on Lymphoprep (Fresenius KABI Norge AS) gradient. After extensive washing, cells were resuspended (1 × 10^6 cells/mL) in RPMI-1640 with 10% fetal bovine serum and incubated overnight. For cytotoxicity evaluations in proliferating PBL cultures, non-adherent cells were resuspended at 5 × 10^5 cells/mL in growth medium, containing 2.5 μg/mL PHA (Irvine Scientific). Different concentrations of the test compounds were added, and viability was determined 72 h later by the MTT test. For cytotoxicity evaluations in resting PBL cultures, non-adherent cells were resuspended (5 × 10^5 cells/mL) and treated for 72 h with the test compounds, as described above.

For another series, the system named is PBL (+Pha). Kind of series: Antiproliferative assay in non-tumoral cells (MTT). To be noted: Homo sapiens, non-tumoral cells stimulated with phytohematoagglutinin, 72 h, mean ± SEM. It is filed as cell-based. The procedure:
as §1

The subject of a further series is HeLa cells. As to the kind of experiment: Antiproliferative MTT assay. It is filed as cell-based. The note with it: Homo sapiens, 72 h, mean ± SEM. As to the method: (§2) Human T-cell leukemia (Jurkat), human B-cell leukemia (RS 4,11) and human promyelocytic leukemia (HL-60) cells were grown in RPMI-1640 medium (Gibco, Milan, Italy). Breast adenocarcinoma (MCF-7 and MDA-MB-231), human non-small cell lung carcinoma (A549), human cervix carcinoma (HeLa), human prostate adenocarcinoma (PC-3), and human colon adenocarcinoma (HT-29) cells were grown in DMEM medium (Gibco, Milan, Italy). Both media were supplemented with 115 units/mL of penicillin G (Gibco, Milan, Italy), 115 μg/mL of streptomycin (Invitrogen, Milan, Italy) and 10% fetal bovine serum (Invitrogen, Milan, Italy). Stock solutions (10 mM) of the different compounds were obtained by dissolving them in DMSO. Individual wells of 96-well tissue-culture microtiter plates were inoculated with 100 μL of complete medium containing 8 × 10^3 cells. The plates were incubated at 37 °C in a humidified 5% CO2 incubator for 18 h prior to the experiments. After medium removal, 100 μL of fresh medium containing the test compound at different concentrations was added to each well and incubated at 37 °C for 72 h. The percentage of DMSO in the medium in no case exceeded 0.25%.
A general note: Formazan colour is commonly taken as a measure of viable cells.

The test system of the next series is A549 cells. Kind of series: Antiproliferative MTT assay. It is filed as cell-based. To be noted: Homo sapiens, 72 h, mean ± SEM. As to the method:
as §2

For a further series, the system named is RS4,11 cells. Kind of series: Antiproliferative MTT assay. The note with it: Homo sapiens, 72 h, mean ± SEM. It is filed as cell-based. The procedure:
as §2

Another series deals with MCF-7 cells. As to the kind of experiment: Antiproliferative MTT assay. It is filed as cell-based. The note with it: Homo sapiens, MCF7, 72 h, mean ± SEM. As to the method:
as §2

The test system of series [3] is MDA-MB-231 cells. Kind of series: Antiproliferative MTT assay. To be noted: Homo sapiens, 72 h, mean ± SEM. It is filed as cell-based. The procedure: as §2
For a further series, the system named is HL-60 cells. As to the kind of experiment: Antiproliferative MTT assay. To be noted: Homo sapiens, 72 h, mean ± SEM. It is filed as cell-based. The procedure: as §2
Another series has as its system Jurkat cells. As to the kind of experiment: Antiproliferative MTT assay. It is filed as cell-based. To be noted: Homo sapiens, 72 h, mean ± SEM. The procedure: as §2
The test system of the next series is HT-29 cells. As to the kind of experiment: Antiproliferative MTT assay. It is filed as cell-based. To be noted: Homo sapiens, 72 h, mean ± SEM. As to the method: as §2

Regarding `CN(c1ccc(Cl)cc1)c1cc[n+](Cc2ccc(-c3ccc(C[n+]4ccc(N(C)c5ccc(Cl)cc5)c5ccccc54)cc3)cc2)c2ccccc12` [RSM932A, reference compound], in the series on mice, the “Toxicity profile and tolerability” value is “low-toxicity profile with improved tolerability”. Further, the “Cells with hypodiploid DNA content (apoptotic cells by cell-cycle analysis)” value in the series on MDA-MB-231 cells [1] is listed as “negligible percentage of apoptotic cells”. Also, the GI50 is 0.46 ± 0.047 µM in the series with HUVEC; 1.1 ± 0.09 µM with PBL (resting); 0.23 ± 0.05 µM in the series on PBL (+Pha); 0.83 ± 0.1 µM in the series on HeLa cells; 0.45 ± 0.09 µM in the series with A549 cells; 0.17 ± 0.04 µM in the series with RS4,11 cells. Besides, the GI50 in the series on MCF-7 cells worked out at 0.18 ± 0.1 µM; in the series on MDA-MB-231 cells [3], 0.17 ± 0.05 µM; in the series with HL-60 cells, 0.93 ± 0.1 µM; with Jurkat cells, 0.41 ± 0.1 µM; in the series with HT-29 cells, 0.4 ± 0.2 µM. In series [2], the “Cell-cycle effect (G1 phase)” value is recorded as “significant decrease of the G1 phase”.
